Test results from publication PMC9822036, “Virtual Screening, Synthesis, and Biological Evaluation of Some Carbohydrazide Derivatives as Potential DPP-IV Inhibitors” (Molecules, 2022).

Legend:
DPP-IV enzyme = molecular target: T1, DPP-IV enzyme (Homo sapiens, UniProt P27487); assay: In vitro DPP-IV enzymatic assay; assay type: biochemical; settings: means of three independent determinations
T1 construct: purchased Cayman Chemical (only as the URL of the kit insert) 700210
Source text: The prepared compounds were investigated in vitro for their ability to inhibit the DPP-IV enzyme, and the detailed method is already described in our previously published paper.

[1] = tested on: STZ-induced diabetic rats; assay: In vivo antidiabetic activity, STZ-induced T2DM model, fasting blood glucose; design: species or system Wistar rats; settings: compounds 50 mg/kg, sitagliptin 10 mg/kg, daily for 21 days, six rats
Source text: The antihyperglycemic potential of certain compounds was investigated in Wistar rats. STZ-induced diabetic rats were employed for the antihyperglycemic testing. The animal experiments were approved by the Institutional Animal Ethics Committee (IAEC) in New Delhi, India (Protocol Number: IAEC/MCP/009/2020). During the research period, the Committee for the Purpose of Control and Supervision of Experiments on Animals (CPCSEA) and IAEC criteria for animal care were followed.
Rats were given a high-fat diet after one week of acclimation. Diabetes was induced in the animals as per the method each described in [25]. Rats were then divided into six groups with six animals. Group I served as normal control with normal rats receiving the vehicle only. Group II served as diabetes control in which rats received the vehicle only. […] Groups IV, V, and VI served as test groups and received compounds 1b, 5b, and 4c, respectively, at doses of 50 mg/kg b.w. The diabetic rats were given the tested compound suspended in 0.5% w/v CMC every day for 21 days. On days 1, 7, 14, and 21, blood samples were taken from the tail veins of each animal that had fasted overnight. A glucometer was used to measure blood glucose levels.

rats = assay: Acute toxicity studies (OECD guideline 423); assay type: in vivo; settings: oral, 500 mg/kg body weight, monitored for 72 h
Description: Acute toxicity studies were performed as per the OECD guideline 423. For compounds 1b, 4c, and 5b, three groups of six rats weighing 80–120 g were starved overnight and given the test compounds orally at doses of 200, 500, 1000, and 2000 mg/kg body weight. The animals were monitored for 72 h, for symptoms of acute toxicity, such as increased or reduced motor activity, tremors, convulsions, and drowsiness, among others. […] As a result, the OECD-recommended dosage for assessing the antidiabetic action was set at 50 mg/kg (i.e., […]).

ob/ob mice = settings: 10 mg/kg p.o., cited from earlier work

T1 sequence (P27487 whole entry): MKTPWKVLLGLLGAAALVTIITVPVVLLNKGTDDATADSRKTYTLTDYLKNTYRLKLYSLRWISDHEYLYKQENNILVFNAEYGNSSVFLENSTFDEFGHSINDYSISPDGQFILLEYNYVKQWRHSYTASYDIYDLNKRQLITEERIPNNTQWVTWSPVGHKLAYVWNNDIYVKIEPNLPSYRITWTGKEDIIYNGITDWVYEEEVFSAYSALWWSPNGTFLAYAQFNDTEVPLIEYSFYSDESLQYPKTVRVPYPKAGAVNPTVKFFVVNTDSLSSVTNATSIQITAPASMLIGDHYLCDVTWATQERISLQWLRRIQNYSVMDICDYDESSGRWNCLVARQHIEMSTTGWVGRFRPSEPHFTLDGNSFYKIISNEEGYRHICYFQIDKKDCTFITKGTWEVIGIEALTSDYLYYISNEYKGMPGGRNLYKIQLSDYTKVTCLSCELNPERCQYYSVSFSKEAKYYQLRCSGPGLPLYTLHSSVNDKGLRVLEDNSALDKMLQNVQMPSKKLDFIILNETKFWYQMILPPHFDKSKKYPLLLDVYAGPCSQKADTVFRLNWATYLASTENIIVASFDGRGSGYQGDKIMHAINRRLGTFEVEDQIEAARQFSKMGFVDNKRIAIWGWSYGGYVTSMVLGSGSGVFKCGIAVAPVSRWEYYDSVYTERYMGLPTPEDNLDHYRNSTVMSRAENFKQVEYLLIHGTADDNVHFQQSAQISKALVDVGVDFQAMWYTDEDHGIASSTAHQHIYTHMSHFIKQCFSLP

SMILES | inhibition at 50 µM (DPP-IV enzyme) [%] | IC50 (DPP-IV enzyme) [µM] | further results
CC1=C(C(=O)N/N=C/c2ccccc2)C(c2ccc(F)cc2F)NC(=O)N1 (stereo not shown) [Compound 5a, (E)-N-Benzylidene-4-(2,4-difluorophenyl)-6-methyl-2-oxo-1,2,3,4-tetrahydropyrimidine-5-carbohydrazide] | 44.2 ± 0.28 | 65.31 ± 0.0021 | –
CC1=C(C(=O)N/N=C/c2ccccc2)C(c2ccccc2Cl)NC(=O)N1 (stereo not shown) [Compound 2a, (E)-N-Benzylidene-4-(2-chlorophenyl)-6-methyl-2-oxo-1,2,3,4-tetrahydropyrimidin-5-carbohydrazide] | 61.25 ± 0.16 | 32.41 ± 0.0033 | –
CC1=C(C(=O)N/N=C/c2ccccc2O)C(c2ccccc2)NC(=O)N1 (stereo not shown) [Compound 1b, (E)-N-(2-Hydroxybenzylidene)-6-methyl-2-oxo-4-phenyl-1,2,3,4-tetrahydropyrimidine-5-carbohydrazide] | 42.69 ± 0.28 | 54.73 ± 0.0025 | Fasting Blood Glucose ± SEM, On Day 1 [1]: 261.00 ± 8.44 mg/dL; Fasting Blood Glucose ± SEM, On Day 7 [1]: 215.03 ± 3.29 mg/dL; Fasting Blood Glucose ± SEM, On Day 14 [1]: 187.05 ± 6.48 mg/dL; Fasting Blood Glucose ± SEM, On Day 21 [1]: 160.12 ± 6.18 mg/dL; Acute toxicity, mortality (rats): more than half of the animals died
COc1ccccc1/C=N/NC(=O)C1=C(C)NC(=O)NC1c1ccc(F)cc1F (stereo not shown) [Compound 5c] | 58.54 ± 0.27 | 37.63 ± 0.0026 | –
COc1ccc(/C=N/NC(=O)C2=C(C)NC(=O)NC2c2ccccc2Cl)cc1 (stereo not shown) [Compound 2d, (E)-4-(2-Chlorophenyl)-N-(4-methoxybenzylidene)-6-methyl-2-oxo-1,2,3,4-tetrahydropyrimidine-5-carbohydrazide] | 64.78 ± 0.33 | 31.72 ± 0.0021 | –
COc1ccc(/C=N/NC(=O)C2=C(C)NC(=O)NC2c2ccccc2F)cc1 (stereo not shown) [Compound 4d, (E)--4-(2-Fluorophenyl)-N-(4-methoxybenzyldene)-6-methyl-2-oxo-1,2,3,4-tetrahydropyrimidine-5-carbohydrazide] | 57.74 ± 0.38 | 38.62 ± 0.0025 | –
CC1=C(C(=O)N/N=C/c2ccccc2O)C(c2ccccc2Cl)NC(=O)N1 (stereo not shown) [Compound 2b, (E)-4-(2-Chlorophenyl)-N-(2-hydroxybenzylidene)-6-methyl-2-oxo-1,2,3,4-tetrahydropyrimidine-5-carbohydrazide] | 65.5 ± 0.08 | 31.93 ± 0.0029 | –
CC1=C(C(=O)N/N=C/c2ccccc2)C(c2ccccc2)NC(=O)N1 (stereo not shown) [Compound 1a, (E)-N-Benzylidene-6-methyl-2-oxo-4-phenyl-1,2,3,4-tetrahydropyrimidine-5-carbohydrazide] | 40.74 ± 0.38 | 58.95 ± 0.0012 | –
COc1ccccc1/C=N/NC(=O)C1=C(C)NC(=O)NC1c1ccc(Cl)cc1Cl (stereo not shown) [Compound 3c] | 61 ± 0.08 | 33.73 ± 0.0024 | –
CC1=C(C(=O)N/N=C/c2ccccc2)C(c2ccccc2F)NC(=O)N1 (stereo not shown) [Compound 4a] | 64.78 ± 0.33 | 30.47 ± 0.0025 | –
CC1=C(C(=O)N/N=C/c2ccccc2)C(c2ccc(Cl)cc2Cl)NC(=O)N1 (stereo not shown) [Compound 3a, (E)-N-Benzylidene-4-(2,4-dichlorophenyl)-6-methyl-2-oxo-1,2,3,4-tetrahydropyrimidine-5-carbohydrazide] | 61.25 ± 0.16 | 33.91 ± 0.0029 | –
COc1ccc(/C=N/NC(=O)C2=C(C)NC(=O)NC2c2ccccc2)cc1 (stereo not shown) [Compound 1d, (E)-N-(4-Methoxybenzylidene)-6-methyl-2-oxo-4-phenyl-1,2,3,4-tetrahydropyrimidine-5-carbohydrazide] | 57.74 ± 0.38 | 38.26 ± 0.005 | –
COc1ccccc1/C=N/NC(=O)C1=C(C)NC(=O)NC1c1ccccc1F (stereo not shown) [Compound 4c, (E)--4-(2-Fluorophenyl)-N-(2-methoxybenzyldene)-6-methyl-2-oxo-1,2,3,4-tetrahydropyrimidine-5-carbohydrazide] | 60.4 ± 0.08 | 34.94 ± 0.0016 | Fasting Blood Glucose ± SEM, On Day 1 [1]: 264.66 ± 5.70 mg/dL; Fasting Blood Glucose ± SEM, On Day 7 [1]: 237.16 ± 9.01 mg/dL; Fasting Blood Glucose ± SEM, On Day 14 [1]: 194.83 ± 4.81 mg/dL; Fasting Blood Glucose ± SEM, On Day 21 [1]: 169.66 ± 8.53 mg/dL; Acute toxicity, mortality (rats): more than half of the animals died
CC1=C(C(=O)N/N=C/c2ccccc2O)C(c2ccccc2F)NC(=O)N1 (stereo not shown) [Compound 4b, (E)--4-(2-Fluorophenyl)-N-(2-hydroxybenzyldene)-6-methyl-2-oxo-1,2,3,4-tetrahydropyrimidine-5-carbohydrazide] | 63.8 ± 0.16 | 31.75 ± 0.0027 | –
N[C@@H](CC(=O)N1CCn2c(nnc2C(F)(F)F)C1)Cc1cc(F)c(F)cc1F [Sitagliptin, reference compound] | – | – | Fasting Blood Glucose ± SEM, On Day 1 [1]: 240.16 ± 9.88 mg/dL; Fasting Blood Glucose ± SEM, On Day 7 [1]: 178.66 ± 6.92 mg/dL; Fasting Blood Glucose ± SEM, On Day 14 [1]: 175.16 ± 8.61 mg/dL; Fasting Blood Glucose ± SEM, On Day 21 [1]: 133.50 ± 11.80 mg/dL; Long-term inhibition (ob/ob mice; after 8 h): > 70%; Glucose excursion (ob/ob mice; at 8 h): 35%
CC1=C(C(=O)N/N=C/c2ccccc2O)C(c2ccc(Cl)cc2Cl)NC(=O)N1 (stereo not shown) [Compound 3b, (E)--4-(2,4-Dichlorophenyl)-N-(2-hydroxybenzyldene)-6-methyl-2-oxo-1,2,3,4-tetrahydropyrimidine-5-carbohydrazide] | 61 ± 0.08 | 33.79 ± 0.0021 | –
CC1=C(C(=O)N/N=C/c2ccccc2O)C(c2ccc(F)cc2F)NC(=O)N1 (stereo not shown) [Compound 5b, (E)--4-(2,4-Difluorophenyl)-N-(2-hydroxybenzyldene)-6-methyl-2-oxo-1,2,3,4-tetrahydropyrimidine-5-carbohydrazide] | 70.7 ± 0.37 | 28.13 ± 0.0029 | Fasting Blood Glucose ± SEM, On Day 1 [1]: 253.83 ± 4.49 mg/dL; Fasting Blood Glucose ± SEM, On Day 7 [1]: 182.00 ± 8.11 mg/dL; Fasting Blood Glucose ± SEM, On Day 14 [1]: 167.16 ± 6.23 mg/dL; Fasting Blood Glucose ± SEM, On Day 21 [1]: 157.33 ± 5.75 mg/dL; Fasting Blood Glucose ± SEM, On Day 21 ([1]; listed as Compound 5b): 157.33 ± 5.75 mg/dL; Acute toxicity, mortality (rats): more than half of the animals died
COc1ccccc1/C=N/NC(=O)C1=C(C)NC(=O)NC1c1ccccc1Cl (stereo not shown) [Compound 2c, (E)-4-(2-Chlorophenyl)-N-(2-methoxybenzylidene)-6-methyl-2-oxo-1,2,3,4-tetrahydropyrimidine-5-carbohydrazide] | 63.25 ± 0.05 | 33.97 ± 0.0025 | –
COc1ccccc1/C=N/NC(=O)C1=C(C)NC(=O)NC1c1ccccc1 (stereo not shown) [Compound 1c, (E)-N-(2-Methoxybenzylidene)-6-methyl-2-oxo-4-phenyl-1,2,3,4-tetrahydropyrimidine-5-carbohydrazide] | 56.47 ± 0.37 | 39.72 ± 0.0027 | –
